Test results reported in patent EP3338775B1, “USE OF BUTYLIDENEPHTHALIDE” (Everfront Biotech Inc., priority 2015, dated 2017).
“And” between values parts separate entries of the source, which are not always exact repeats. Identical values can stand only once.

Columns and labels:
Format in all cases: cell-based
ALDH = experiment: ALDEFLUOR flow cytometry analysis of ALDH activity in HNC-TIC-like oral stem cells; conditions: DEAB-added group (150 µM DEAB), with or without BP treatment; Figure 8
Procedure: ALDH protein is also an important stemness-maintenance marker of cancer stem cells and participates in the regulation of the self-renewal and differentiation of cancer stem cells. HNC-TIC-like oral stem cells (i.e., ALDH1^+CD44^+-1 cell line or ALDH1^+CD44^+-2 cell line) were treated with different concentrations (0, 25 and 50 µg/ml) of BP for 24 hours, and then, 1 ×10^5 cells obtained from each group were separately suspended in 50 µl of a stem cell detection kit (i.e., ALDEFLUOR array kit, purchased from […] Technologies Inc., Vancouver, Canada) buffer and the cell suspension of each group was separately added with ALDEFLUOR to a final concentration of 1 µM. Thereafter, a sample of each group was stained by […] and then analyzed by flow cytometry analysis to determine the ALDH activity of HNC-TIC-like oral stem cells (i.e., ALDH1^+CD44^+-1 cell line and ALDH1^+CD44^+-2 cell line).
The above experimental procedure was repeated, but the cell suspension of each group was further added with N,N-diethylaminobenzaldehyde (DEAB, i.e., an inhibitor of ALDH) to a final concentration of 150 µM of DEAB separately.

[1] = tested on: malignant glioma DBTRG cells; experiment: MTT cell viability assay on malignant glioma DBTRG cells; conditions: 24-hour group
Procedure: Thereafter, a cell viability assay, MTT assay, was utilized to analyze the viabilities of brain CSCs ^CD133+ and malignant glioma DBTRG cells. […] The results are shown in Figure 1A and Figure 1B for 24-hour group and 48-hour group (i.e., the treatment for 24 hours and 48 hours) and in Table 1 for 24-hour group.

brain CSCs ^CD133+ = experiment: MTT cell viability assay on brain CSCs CD133+; conditions: 24-hour group, MTT assay; read-out: IC50 to brain CSCs ^CD133+
Text: Thereafter, a cell viability assay, MTT assay, was utilized to analyze the viabilities of brain CSCs ^CD133+ and malignant glioma DBTRG cells. […]

Compound | live cells with ALDH activity, of total live cells (ALDH) [%] | IC50 [1] | IC50 (brain CSCs ^CD133+)
CCN(CC)c1ccc(C=O)cc1 [DEAB, N,N-diethylaminobenzaldehyde, reference compound] | 0.1 | – | –
O=NN(CCCl)C(=O)NCCCl [BCNU, bis-chloroethylnitrosourea] | – | 352 µM and 75.4 µg/mL | –
Cn1nnc2c(C(N)=O)ncn2c1=O [TMZ, temozolomide, reference compound] | – | 1.66 mM and 322 µg/mL | > 1.6 mM and > 311 µg/mL
